These compounds were tested on full-length human prolyl-4-hydroxylase domain (PHD) enzymes, PHD1 and PHD2 (assay: TR-FRET assay, selectivity of compounds for PHD1 over PHD2 (ratio of Kis calculated from IC50s)). Conditions: ratio of Kis (PHD2 Ki/PHD1 Ki), Kis calculated from TR-FRET IC50s by Cheng Prussoff equation; 1 uM 2-OG.
Type: biochemical
Source text: Time-resolved fluorescence resonance energy transfer (TR-FRET) assay was utilized to determine the enzymatic half maximal inhibitory concentration (IC50) value of PHD inhibitors against the full-length human prolyl-4-hydroxylase domain (PHD) enzymes, PHD1 and PHD2. The TR-FRET assay was developed based on the specific binding of hydroxylated HIF-la peptide with the complex formed by VHL, EloB and EloC (VBC), to generate a fluorescent signal. Terbium (Tb)-Donor (monoclonal antibody anti-6His-Tb-cryptate Gold) and D2-acceptor (streptavidin [SA]-D2) of TR-FRET are linked to the VBC complex and to HIF-1α peptide, respectively. The VBC complex binds specifically to the HIF-1α peptide when it is hydroxylated, allowing energy transfer from TR-FRET donor to acceptor (FIG. 1).
TR-FRET Reagents. Monoclonal antibody anti-6His-Tb-cryptate Gold (catalog #61HI2TLA) and streptavidin (SA)-D2 (catalog #610SADLA) were purchased from CisBio International (Bedford, MA, USA).
N-terminus biotinylated HIF-1α C35 synthetic peptide representing amino acids 547 to 581 and including the proline 564 PHD2 hydroxylation site was purchased from California Peptide Research (Salt Lake City, UT, USA).
VBC Complex. His-tagged recombinant VHL protein, EloB, EloC complex (His-VBC) was supplied by Axxam (Milan, Italy). Recombinant human VHL (National Center for Biotechnology Information [NCBI] accession number NP_00542.1) contained a His tag at the C-terminus of amino acids 55 to 213 and is referred to as VHL-His. VHL-His was co-expressed in E. coli with full-length human EloB (NCBI accession number Q15370.1) and full-length human EloC (NCBI accession number Q15369.1) and purified by affinity chromatography on a nickel-nitrilotriacetic acid (Ni-NTA) column as the His-VBC complex. Purity (˜80%) was assessed by sodium dodecyl sulfate polyacrylamide gel electrophoresis (SDS-PAGE).
PHD1. Recombinant human PHD1 protein (catalog #81064, Lot #24717001) was purchased from Active Motif (Carlsbad, CA, USA). PHD1 was expressed in a baculovirus expression system as the full-length protein (NCBI accession number NP_542770.2) with an N-terminal FLAG tag (molecular weight 44.9 kDa). Purity (>90%) was assessed by SDS-PAGE.
PHD2. The full-length human PHD2 enzyme was produced with a baculovirus infected insect cell (BIIC) expression system by Beryllium (Bedford, MA, USA). The PHD2 construct contained amino acids 1 to 426 of PHD2 (UniProt Knowledgebase[UniProtKB]/Swiss-Prot accession number Q9GZT9.1), and a His tag and a Tobacco Etch Virus (TEV) protease cleavage site at the N-terminus. The construct was expressed in Sf9 insect cells, purified by Ni-NTA column and digested with TEV protease to remove the His tag.
Compounds were preincubated with PHD enzyme in a 10 μL reaction volume in white 384-well Optiplate microplates (catalog #6007290, Perkin Elmer, Waltham, MA, USA). For this, 5 μL compound was serially diluted with dilution buffer (50 mM HEPES [4-(2-hydroxyethyl)-1-piperazineethanesulfonic acid] pH 7.5, 50 mM sodium chloride [NaCl], 0.01% Tween-20, 0.01% purified bovine serum albumin [BSA]) and mixed with 5 μL PHD enzyme mix prepared as a 4× concentrate in the dilution buffer containing PHD enzyme (60 nM PHD1, 20 nM PHD2, 140 nM PHD3), 40 μM ferrous ammonium sulfate (FAS), 4 mM sodium (Na) ascorbate. The plates were incubated for 30 minutes at room temperature without rotation.
Five microliters of the VBC/anti-6His-Tb-cryptate Gold mix prepared as a 4× concentrate in dilution buffer containing 20 nM His-VBC, 1.32 nM monoclonal antibody anti-6His-Tb-cryptate Gold was then added. This step was followed immediately by the addition of 5 μL of the HIF-1α C35 substrate mix prepared as a 4× concentrate in the dilution buffer containing 120 nM biotin-labeled HIF-1α C35, 132 nM SA-D2, 4 μM 2-oxoglutarate (2-OG) to reach a final reaction volume of 20 μL. […]

For `CC(C)(CNC(=O)c1ncc(-c2ccc3cc(OCCc4ccc(Cl)cc4)ccc3c2)cc1O)C(=O)O` [compound 28, 3-(5-(6-(4-chlorophenethoxy)naphthalen-2-yl)-3-hydroxypicolinamido)-2,2-dimethylpropanoic acid], which “Selectivity of PHD1 over PHD2” value is on record?
The value was roughly 9 fold.

Which “Selectivity of PHD1 over PHD2” value does the source give for `CC(C)(CNC(=O)c1ncc(-c2cccc(N)c2)cc1O)C(=O)O` [compound 29, 3-(5-(3-aminophenyl)-3-hydroxypicolinamido)-2,2-dimethylpropanoic acid] here?
Its value is roughly 20 fold.

`CC(C)(CNC(=O)c1ncc(-c2cccc(NCc3ccc(Cl)cc3)c2)cc1O)C(=O)O` [compound 30, 3-(5-(3-((4-Chlorobenzyl)amino)phenyl)-3-hydroxypicolinamido)-2,2-dimethylpropanoic acid] was tested. Which “Selectivity of PHD1 over PHD2” value did it give?
The value was roughly 223 fold.

`CC(C)(CNC(=O)c1ncc(-c2cccc(OCCc3ccc(Cl)cc3)c2)cc1O)C(=O)O` [compound 31, 3-(5-(3-(4-chlorophenethoxy)phenyl)-3-hydroxypicolinamido)-2,2-dimethylpropanoic acid] was tested. Which “Selectivity of PHD1 over PHD2” value did it give?
Its value is roughly 40 fold.

Which “Selectivity of PHD1 over PHD2” value does the source give for `CC(C)(C)OC(=O)N1CCC(n2cc(-c3cnc(C(=O)NCC(C)(C)C(=O)O)c(O)c3)cn2)CC1` [compound 32, 3-(5-(1-(1-(tert-butoxycarbonyl)piperidin-4-yl)-1H-pyrazol-4-yl)-3-hydroxypicolinamido)-2,2-dimethylpropanoic acid] here?
The value was roughly 444 fold.

`CC(C)(C)OC(=O)N1CCc2sc(-c3cnc(C(=O)NCC(C)(C)C(=O)O)c(O)c3)cc2C1` [compound 33, 3-(5-(5-(tert-butoxycarbonyl)-4,5,6,7-tetrahydrothieno[3,2-c]pyridin-2-yl)-3-hydroxypicolinamido)-2,2-dimethylpropanoic acid] was tested. Which “Selectivity of PHD1 over PHD2” value did it give?
The value was roughly 1605 fold.

`CC(C)(CNC(=O)c1ncc(-c2cnn(-c3ccc(Cl)cc3Cl)c2)cc1O)C(=O)O` [compound 34, 3-(5-(1-(2,4-dichlorophenyl)-1H-pyrazol-4-yl)-3-hydroxypicolinamido)-2,2-dimethylpropanoic acid] was tested. Which “Selectivity of PHD1 over PHD2” value did it give?
Its value is roughly 24 fold.

Which “Selectivity of PHD1 over PHD2” value does the source give for `CC(C)(CNC(=O)c1ncc(-c2cc3nc(Cl)ccc3s2)cc1O)C(=O)O` [compound 35, 3-(5-(5-chlorothieno[3,2-b]pyridin-2-yl)-3-hydroxypicolinamido)-2,2-dimethylpropanoic acid] here?
The value was roughly 271 fold.

Which “Selectivity of PHD1 over PHD2” value does the source give for `CC(C)(CNC(=O)c1ncc(-c2ccc(S(=O)(=O)N3CCCC3)cc2CO)cc1O)C(=O)O` [compound 36, 3-(3-hydroxy-5-(2-(hydroxymethyl)-4-(pyrrolidin-1-ylsulfonyl)phenyl)picolinamido)-2,2-dimethylpropanoic acid] here?
The value was roughly 113 fold.

`CC(C)(CNC(=O)c1ncc(-c2cnn(-c3cccc(C(F)(F)F)c3)c2)cc1O)C(=O)O` [compound 37, 3-(3-hydroxy-5-(1-(3-(trifluoromethyl)phenyl)-1H-pyrazol-4-yl)picolinamido)-2,2-dimethylpropanoic acid] was tested. Which “Selectivity of PHD1 over PHD2” value did it give?
The value was roughly 25 fold.

`CC(C)(CNC(=O)c1ncc(-c2cnn3c2CCCC3)cc1O)C(=O)O` [compound 38, 3-(3-hydroxy-5-(4,5,6,7-tetrahydropyrazolo[1,5-a]pyridin-3-yl)picolinamido)-2,2-dimethylpropanoic acid] was tested. Which “Selectivity of PHD1 over PHD2” value did it give?
Its value is roughly 49 fold.

How did the “Selectivity of PHD1 over PHD2” value turn out when `Cc1ccnc2ccc(-c3cnc(C(=O)NCC(C)(C)C(=O)O)c(O)c3)cc12` [compound 39, 3-(3-hydroxy-5-(4-methylquinolin-6-yl)picolinamido)-2,2-dimethylpropanoic acid] was run?
Its value is roughly 230 fold.

Which “Selectivity of PHD1 over PHD2” value does the source give for `Cc1cccc2cc(-c3cnc(C(=O)NCC(C)(C)C(=O)O)c(O)c3)cnc12` [compound 40, 3-(3-hydroxy-5-(8-methylquinolin-3-yl)picolinamido)-2,2-dimethylpropanoic acid] here?
The value was roughly 20 fold.

Which “Selectivity of PHD1 over PHD2” value does the source give for `COc1ccc2cc(-c3cnc(C(=O)NCC(C)(C)C(=O)O)c(O)c3)ccc2c1` [compound 41, 3-(3-hydroxy-5-(6-methoxynaphthalen-2-yl)picolinamido)-2,2-dimethylpropanoic acid] here?
Its value is roughly 1960 fold.

Reference: patent publication US20240336568A1, “SELECTIVE PHD1 INHIBITOR COMPOUNDS, COMPOSITIONS, AND METHODS OF USE” (Akebia Therapeutics, Inc., priority 2021, published 2024)
